How the values were obtained:
[1] = tested on: adhesion of SspB of S. gordonii to iSRCR123; assay: Adherence/inhibition SPR: SspB fragments on immobilized iSRCR123; type: binding; settings: 0.005 mM peptide; 2 μM protein
Protocol: (§1) Carbohydrates Galβ1-3-GalNac and Mannose (identified from glycan profile analysis) at different concentrations (0.010, 0.050, 0.1, 0.5 and 1 mM) were incubated with 2 μM of each FL, A3VP1 and C123 of AgI/II and SspB and the interaction with immobilized iSRCR1 and iSRCR123 with running buffer containing 20 mM HEPES, 150 mM NaCl and 2.5 mM CaCl2, pH 7.4 at 25° C. and with flow rate of 20 μl/min was analyzed. Direct adherence of these carbohydrates alone served as the control and all calculations were carried out using the BIAevaluation software. Using the same protocol above at varying concentrations the effect of SRCRP2 peptide on the adherence inhibition was assessed.

S. mutans UA159 = assay: Aggregation assay (OD700 over 60 min); type: cell-based
Protocol: (§2) Aggregation assays were performed as described earlier with slight modifications. Briefly, S. mutans UA159 and S. gordonii DL1 cells were grown in TSY broth media overnight at 37° C. in the presence of 5% CO2. The bacteria were centrifuged at 5000×g and washed with a buffer containing 20 mM HEPES pH 7.4, 150 mM NaCl and re-suspended to an approximate OD700 of 1. The bacterial suspension (900 μl) was mixed with 100 μl of SAG or iSRCR1 (10 μM) or iSRCR123 ([…]) or commercially synthesized (Think Peptides, Inc) SRCRP2 peptide with fluorescein amidite (FAM) at the carboxyl end ([…]-[FAM]) (SEQ ID NO:9, at both 400 μg/ml and 1 mg/ml) in the presence of 6 mM CaCl2 and aggregation was measured by recording OD700over 60 min at 5 min intervals, where the buffer alone was used as control. All experiments were carried out at least five times, and the results were analyzed with One-way ANOVA. Post-hoc testing where *, P<0.05 was considered statistically significant and results were presented as the percentage of cells aggregated.

S. gordonii DL1 = assay: Aggregation assay (OD700 over 60 min); type: cell-based
Protocol: as §2

iSRCR1 = biological target: T1, iSRCR1 (Homo sapiens, UniProt Q9UGM3); assay: SPR binding of analytes to immobilized iSRCR1 (CM5 chip, 1:1 Langmuir); settings: substance alone over CM5 chip
T1 construct: strongly proves that a single SRCR domain contains the adherence sites for AgI/II and SspB; made in house; host or cells: Drosophila expression system
Protocol: (§3) Real time binding analyses of the SRCR domains with AgI/II fragments were carried out using the BIAcore 2000 system. […] Self association of iSRCR1 or iSRCR123 (at 2 μM) were also determined in a similar manner as described above. Finally to determine the effect of calcium SPR analysis was carried out by dialyzing the analytes and ligands in binding buffer devoid of CaCl2.
(§4) In addition, the SRCR holding two distinct surfaces compounded the elucidation of individual kinetics, and presently there are no modeling protocols available to determine the individual affinities for such a system, therefore for simplicity we have utilized a single site 1:1 Langmuir model. All experiments were carried out in triplicates and the kinetics of the association (KA) and dissociation (KD) rate constants were deduced using the 1:1 Langmuir Kinetic model on the BIA-Evaluation software. The concentration (C in μM) of analyte (FL^AgI/II or FL^SspB at 2 μM) that adhered to the immobilized ligand (iSRCR1, iSRCR123) within the flow cell was calculated using the formula C=(RU/MW)×(1/V), where RU is resonance unit (1 RU=1 pg of bound protein), MW is molecular weight of analyte and V is volume of flow cell (1.2×10^−10 L).

AgI/II of S. mutans = biological target: T2, AgI/II of S. mutans (Streptococcus mutans serotype c, UniProt P23504); assay: ELISA binding of fluorescent tagged SRCRP2 peptide; settings: FAM-labelled peptide
T2 construct: Recombinant full length (FL) constructs of surface proteins (homologs of AgI/II) AgI/II, SspB, Pas; made in house

[2] = biological target: T3, adhesion of SspB of S. gordonii to iSRCR1 (Streptococcus gordonii, UniProt A8AUS1); type: binding; settings: 0.005 mM peptide; 2 μM protein
T3 construct: made in house; host or cells: pET23d vector
Protocol: as §1

[3] = tested on: adhesion of AgI/II of S. mutans to iSRCR123; assay: Adherence/inhibition SPR: AgI/II fragments on immobilized iSRCR123; type: binding; settings: 0.005 mM peptide; 2 μM protein
Protocol: as §1

iSRCR123 = biological target: T4, iSRCR123 (Homo sapiens, UniProt Q9UGM3); assay: SPR binding of analytes to immobilized iSRCR123 (CM5 chip, 1:1 Langmuir); settings: substance alone over CM5 chip
T4 construct: multiple SRCR domains have better adherence capability compared to that of a single SRCR domain; made in house; host or cells: Drosophila expression system
Protocol: as §3, §4

SspB of S. gordonii = SspB of S. gordonii (Streptococcus gordonii, UniProt A8AUS1); settings: FAM-labelled peptide
[4] = tested on: adhesion of AgI/II of S. mutans to iSRCR1; assay: Adherence/inhibition SPR: AgI/II fragments on immobilized iSRCR1; type: binding; settings: 0.005 mM peptide; 2 μM protein
Protocol: as §1

[5] = peptide at lower concentration (400 μg/ml)

T2 sequence (P23504 39-1562): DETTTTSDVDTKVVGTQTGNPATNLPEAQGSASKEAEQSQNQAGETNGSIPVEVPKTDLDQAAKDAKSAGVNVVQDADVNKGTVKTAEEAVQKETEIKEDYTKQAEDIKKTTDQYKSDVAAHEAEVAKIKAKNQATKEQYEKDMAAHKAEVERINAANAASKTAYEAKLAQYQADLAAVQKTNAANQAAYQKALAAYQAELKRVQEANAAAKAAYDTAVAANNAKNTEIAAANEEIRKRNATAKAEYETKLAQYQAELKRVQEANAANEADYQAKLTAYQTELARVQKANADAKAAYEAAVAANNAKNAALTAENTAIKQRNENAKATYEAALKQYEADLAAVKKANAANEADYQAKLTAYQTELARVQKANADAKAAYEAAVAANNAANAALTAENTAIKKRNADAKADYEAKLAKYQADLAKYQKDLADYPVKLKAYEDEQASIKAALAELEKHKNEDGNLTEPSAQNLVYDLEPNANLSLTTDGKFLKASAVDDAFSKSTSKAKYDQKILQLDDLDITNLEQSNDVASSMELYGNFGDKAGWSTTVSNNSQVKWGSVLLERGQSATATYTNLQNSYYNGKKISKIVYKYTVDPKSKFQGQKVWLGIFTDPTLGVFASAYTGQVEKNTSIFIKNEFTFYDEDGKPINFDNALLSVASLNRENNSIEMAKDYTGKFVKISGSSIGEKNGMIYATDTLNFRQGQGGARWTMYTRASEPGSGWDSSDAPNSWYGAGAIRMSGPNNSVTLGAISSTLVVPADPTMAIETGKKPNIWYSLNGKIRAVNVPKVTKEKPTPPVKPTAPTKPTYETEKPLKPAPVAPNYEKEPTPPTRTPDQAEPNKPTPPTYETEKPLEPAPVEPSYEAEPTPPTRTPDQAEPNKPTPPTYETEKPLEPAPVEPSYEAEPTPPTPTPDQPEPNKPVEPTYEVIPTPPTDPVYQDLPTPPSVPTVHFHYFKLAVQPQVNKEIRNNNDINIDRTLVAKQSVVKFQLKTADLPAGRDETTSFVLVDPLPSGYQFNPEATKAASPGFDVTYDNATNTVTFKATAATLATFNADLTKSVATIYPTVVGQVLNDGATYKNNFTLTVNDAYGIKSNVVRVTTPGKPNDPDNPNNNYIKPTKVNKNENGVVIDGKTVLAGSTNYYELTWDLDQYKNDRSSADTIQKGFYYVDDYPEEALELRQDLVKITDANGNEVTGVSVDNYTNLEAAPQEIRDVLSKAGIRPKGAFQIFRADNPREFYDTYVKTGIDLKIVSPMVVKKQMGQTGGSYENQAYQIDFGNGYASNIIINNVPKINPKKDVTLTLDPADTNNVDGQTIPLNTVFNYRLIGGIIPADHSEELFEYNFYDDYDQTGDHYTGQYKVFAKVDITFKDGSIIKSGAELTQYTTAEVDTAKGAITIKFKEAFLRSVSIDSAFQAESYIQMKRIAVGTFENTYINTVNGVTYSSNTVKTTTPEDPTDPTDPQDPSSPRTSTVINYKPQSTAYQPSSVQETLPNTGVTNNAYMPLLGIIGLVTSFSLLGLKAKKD
T1 sequence (Q9UGM3 102-202 limits assumed): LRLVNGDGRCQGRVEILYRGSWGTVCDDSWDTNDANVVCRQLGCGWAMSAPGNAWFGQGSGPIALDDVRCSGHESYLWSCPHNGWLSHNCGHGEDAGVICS
SspB of S. gordonii, sequence (A8AUS1 39-1433): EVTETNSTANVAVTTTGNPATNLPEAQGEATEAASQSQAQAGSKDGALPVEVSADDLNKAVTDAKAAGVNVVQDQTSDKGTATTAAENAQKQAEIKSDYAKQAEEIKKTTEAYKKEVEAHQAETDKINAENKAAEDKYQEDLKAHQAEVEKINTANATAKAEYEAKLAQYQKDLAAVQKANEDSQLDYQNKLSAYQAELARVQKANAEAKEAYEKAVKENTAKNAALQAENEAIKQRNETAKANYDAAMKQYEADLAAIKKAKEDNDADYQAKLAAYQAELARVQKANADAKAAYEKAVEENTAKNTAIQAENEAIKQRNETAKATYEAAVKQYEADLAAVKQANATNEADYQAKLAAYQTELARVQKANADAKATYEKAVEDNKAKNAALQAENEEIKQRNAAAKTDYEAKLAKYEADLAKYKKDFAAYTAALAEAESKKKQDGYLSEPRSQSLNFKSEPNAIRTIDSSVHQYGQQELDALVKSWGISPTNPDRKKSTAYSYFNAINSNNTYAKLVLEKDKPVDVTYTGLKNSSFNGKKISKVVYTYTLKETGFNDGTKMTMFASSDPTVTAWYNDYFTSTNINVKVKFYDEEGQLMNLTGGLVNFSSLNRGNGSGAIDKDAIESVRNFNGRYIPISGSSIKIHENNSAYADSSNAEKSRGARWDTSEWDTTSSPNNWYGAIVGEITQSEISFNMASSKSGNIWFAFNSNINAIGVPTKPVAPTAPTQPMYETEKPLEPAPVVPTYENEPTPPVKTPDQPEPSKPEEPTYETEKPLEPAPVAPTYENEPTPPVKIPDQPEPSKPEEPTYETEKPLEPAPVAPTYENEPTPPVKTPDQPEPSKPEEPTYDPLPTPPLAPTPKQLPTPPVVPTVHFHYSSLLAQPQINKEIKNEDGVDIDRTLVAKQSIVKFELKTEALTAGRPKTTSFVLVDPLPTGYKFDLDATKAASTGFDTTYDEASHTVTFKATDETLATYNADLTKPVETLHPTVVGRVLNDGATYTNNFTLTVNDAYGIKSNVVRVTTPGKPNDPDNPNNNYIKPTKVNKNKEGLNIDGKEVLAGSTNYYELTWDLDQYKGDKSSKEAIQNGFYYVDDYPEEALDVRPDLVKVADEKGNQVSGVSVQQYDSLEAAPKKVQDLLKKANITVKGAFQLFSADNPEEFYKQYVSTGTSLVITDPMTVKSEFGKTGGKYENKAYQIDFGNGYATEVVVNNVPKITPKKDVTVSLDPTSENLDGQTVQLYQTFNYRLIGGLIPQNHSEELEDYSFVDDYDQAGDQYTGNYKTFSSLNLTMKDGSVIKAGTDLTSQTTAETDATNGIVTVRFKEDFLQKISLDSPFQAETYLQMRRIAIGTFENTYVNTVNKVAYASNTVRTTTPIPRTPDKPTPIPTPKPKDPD
T4 sequence (Q9UGM3 102-463 limits assumed): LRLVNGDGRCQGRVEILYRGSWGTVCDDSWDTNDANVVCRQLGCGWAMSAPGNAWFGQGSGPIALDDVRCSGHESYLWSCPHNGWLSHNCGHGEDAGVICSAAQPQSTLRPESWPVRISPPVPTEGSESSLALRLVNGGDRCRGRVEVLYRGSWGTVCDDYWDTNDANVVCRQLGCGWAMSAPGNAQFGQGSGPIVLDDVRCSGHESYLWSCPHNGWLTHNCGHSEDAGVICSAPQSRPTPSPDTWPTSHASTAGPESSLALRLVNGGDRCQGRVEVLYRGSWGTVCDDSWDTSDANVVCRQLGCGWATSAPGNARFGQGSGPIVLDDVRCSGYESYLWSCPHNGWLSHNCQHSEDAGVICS

“QGRVEVLYRGSWGTVC [SRCRP2 peptide, reference compound]” was tested, and the “change in adherence of A3VP1^SspB to iSRCR123” value [1] was 3%, the “change in adherence of C123^SspB to iSRCR123” value [1] was 5% and the “improvement of adherence of FL^SspB to iSRCR123” value [1] was 91%. The “percentage of cells aggregated” value (S. mutans UA159; peptide 1 mg/ml) was 18%, the “percentage of cells aggregated” value (S. mutans UA159; [5]) was 12% and the “percentage of cells aggregated” value (S. gordonii DL1; peptide 1 mg/ml) was 12%. For the same sequence, the “percentage of cells aggregated” value (S. gordonii DL1; [5]) was 11%, the “direct binding to immobilized iSRCR1 (in words)” value (iSRCR1) was “did not show any binding” and the “adherence to AgI/II and its subfragments by ELISA (in words)” value (AgI/II of S. mutans) was “adheres well”. The “change in adherence of A3VP1^SspB to iSRCR1” value [2] was 3%, the “change in adherence of C123^SspB to iSRCR1” value [2] was 4% and the “improvement of adherence of FL^SspB to iSRCR1” value [2] was 97%. The “change in adherence of C123^AgI/II to iSRCR123” value [3] was 7%, the “improvement of adherence of A3VP1^AgI/II to iSRCR123” value [3] was 16% and the “improvement of adherence of FL^AgI/II to iSRCR123” value [3] was 8%. The “direct binding to immobilized iSRCR123 (in words)” value (iSRCR123) was “did not show any binding”, the “adherence to SspB and its subfragments by ELISA (in words)” value (SspB of S. gordonii) was “adheres well” and the “change in adherence of C123^AgI/II to iSRCR1” value [4] was 2.3%. The “improvement of adherence of A3VP1^AgI/II to iSRCR1” value [4] was 13% and the “improvement of adherence of FL^AgI/II to iSRCR1” value [4] was 8%.

Reference: patent US20160331662A1, “Compositions that Inhibit and Prevent the Formation of Dental Caries and Methods of Using the Same” (priority 2014, published 2016)
